Assay results from patent EP0974351A2, “Medicament for preventing and treating gastrointestinal damage” (JOUVEINAL, priority 1998, dated 2000).

Test system: LPS-Induced Delayed (12 Hours) Allodynia
Experiment: LPS-induced delayed (12 hours) rectal allodynia in rats
Format: in vivo, Male Wistar rats
Text: The GABA analogs also have been evaluated for their ability to control and treat gastrointestinal disorders characterized as IBD and IBS. The assay utilized to evaluate the GABA analogs measures the effects of compound on lipopolysaccharide-induced delayed rectal allodynia in rats. Intraperitoneal (IP) injections of the endotoxin lipopolysaccharide (LPS) are known to induce long-lasting hyperalgesia in somatic pain models. The following assay was designed to evaluate the effect of IP injections of LPS on pain visceral threshold in an experimental model of rectal distension.
Male Wistar rats weighing 250 to 350 g were surgically prepared for electromyography, according to a previously described technique. Rats were anesthetized by i.p. injection of acepromazine and ketamine (Imalgene 1000, Rhöne-Mérieux, Lyon, France) at doses of 0.6 and 120 mg/kg, respectively. […] Electrodes were exteriorized on the back of the neck and protected by a glass tube attached to the skin. Animals were individually housed in polypropylene cages and kept in a temperature-controlled room (21°C). They were allowed free access to water and food (UAR pellets, Epinay, France).
Electromyographic recording began 5 days after surgery. The electrical activity of abdominal striated muscles was recorded with an electroencephalograph machine (Mini VIII, Alvar, Paris, France) using a short-time constant (0.03 sec) to remove low-frequency signals (<3 Hz) and a paper speed of 3.6 cm/minute.
Rats were placed in plastic tunnels (6 cm diameter; 25 cm length) where they could not move, escape or turn around, in order to prevent damage to the balloon. They are accustomized to this procedure for 3 or 4 days before rectal distension (RD) in order to minimize stress reaction during experiments. […] The balloon used for distension was an arterial embolectomy catheter (Fogarty, Edwards Laboratories, Inc., Santa Ana, USA). RD was performed by insertion of the balloon (2-mm diameter; 2-cm long) in the rectum, at 1 cm of the anus, the catheter being fixed at the tail. It was inflated progressively by step of 0.4 mL, from 0 to 1.6 mL, each step of inflation lasting 5 minutes. To detect possible leakage, the volume of water introduced in the balloon was checked by complete removal with a syringe at the end of the distension period.
In a second series of experiments, the same group of 8 rats received IP lipopolysaccharide (E Coil, serotype 0111:B4) or its vehicle, at a dose of 1 mg/kg IP, 1 hour after a control rectal distension. […]
Statistical analysis of the number of abdominal contractions occurring during each 5-minute period during RD was performed by one-way ANOVA followed by Student's paired t-test. Values were expressed as the mean ± SEM, and differences were considered significant for p <0.05.

NCC1(CC(=O)O)CCCCC1 [Gabapentin, 1-(aminomethyl)-cyclohexane acetic acid]
Number of abdominal contractions/5 minutes (LPS (1 mg/kg) + Gabapentin (3.0 mg/kg (so in the source)) IP 30 min before distension, 12 hours after LPS, 0.4 mL, LPS + vehicle 9.7 ± 1.0, p <0.001): 0.7 ± 0.5 abdominal contractions/5 minutes | % of reduction vs "LPS/vehicle" (LPS (1 mg/kg) + Gabapentin (3.0 mg/kg (so in the source)) IP, 0.4 mL): -92.8% | Number of abdominal contractions/5 minutes (LPS (1 mg/kg) + Gabapentin (3.0 mg/kg (so in the source)) IP, 0.8 mL, LPS + vehicle 11.7 ± 1.2): 11.9 ± 0.8 abdominal contractions/5 minutes | Number of abdominal contractions/5 minutes (LPS (1 mg/kg) + Gabapentin (3.0 mg/kg (so in the source)) IP, 1.2 mL, LPS + vehicle 23.5 ± 2.2): 16.3 ± 3.2 abdominal contractions/5 minutes
